Experimental data: publication PMC3847553, “Kinetic properties of “dual” orexin receptor antagonists at OX1R and OX2R orexin receptors” (Frontiers in Neuroscience, 2013)
Where two headings read alike, the source gives them in different places.

Experiments:
human OX1R [1] = target: T1, human OX1R (Homo sapiens, UniProt O43613); test: FLIPR orexin A-stimulated calcium accumulation, human OX1R; assay type: cell-based; conditions: CHO cells
T1 construct: expressed in transfected cells; host or cells: CHO; cells from GNF, San Diego
T1 sequence (O43613 1-425): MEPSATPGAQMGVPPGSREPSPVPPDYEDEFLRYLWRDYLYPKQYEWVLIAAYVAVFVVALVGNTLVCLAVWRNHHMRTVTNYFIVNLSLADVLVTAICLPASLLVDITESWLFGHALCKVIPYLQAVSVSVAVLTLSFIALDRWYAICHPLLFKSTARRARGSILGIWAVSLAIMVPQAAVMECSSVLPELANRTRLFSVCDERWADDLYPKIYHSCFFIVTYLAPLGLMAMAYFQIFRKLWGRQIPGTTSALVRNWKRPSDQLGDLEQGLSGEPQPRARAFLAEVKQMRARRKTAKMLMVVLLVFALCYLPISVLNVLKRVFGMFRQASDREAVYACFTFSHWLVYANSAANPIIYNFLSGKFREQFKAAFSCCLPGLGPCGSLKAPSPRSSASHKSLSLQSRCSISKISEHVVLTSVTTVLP
Description: (§1) Chinese Hamster Ovary (CHO) cells stably transfected with the cDNA encoding the human OX1R (CHO-hOX1) or OX2R (CHO-hOX2) were used (kindly provided by T. Cremer and Dr. S. Geisse, NIBR Basel, Switzerland). For measurements of calcium accumulation using FLIPR® (Fluorescent Imaging Plate Reader) assay, CHO or Human Embryonic Kidney (HEK) cells stably expressing mouse, rat or human OX1R or OX2R (kindly provided by Dr. A. Chen, GNF, San Diego, CA, USA) were used. […] Cells were maintained in a humidified incubator at 37°C in 5% CO2. For crude cell membrane preparations, cells were washed and harvested in 10 mM HEPES (pH 7.5), and centrifuged at 4°C for 5 min at 2500 g. The cell pellet was either stored at −80°C or used directly.
(§2) Cells expressing either human, rat or mouse OX1R or OX2R were seeded at 8,000 cells/well in black 384 well clear bottom plates and incubated overnight at 37°C. The following day, medium was discarded and cells loaded with 50 μ l of 1 mM Fluo-4 AM (Invitrogen F14202) in dimethyl sulfoxide in working buffer (Hanks' balanced salt solution, 10 mM HEPES) and incubated for 60 min at 37°C. The loading buffer was removed and cells were washed with 100 μ l working buffer containing […], 0.1% BSA, and 2.5 mM Probenecid (pH 7.4) to remove the excess Fluo-4 AM. […] The assay plate was then transferred to the Molecular Devices-FLIPR384. The baseline calcium signal was recorded for 10 s, then the antagonist of interest was injected (10 μl at 3 times the final concentration) and the calcium signal recorded every second for 1 min, then every 2 s 40 times.

rat OX2R = target: T2, rat OX2R (Rattus norvegicus, UniProt P56719); test: FLIPR orexin A-stimulated calcium accumulation, rat OX2R; assay type: cell-based; conditions: HEK cells
T2 sequence (P56719 1-460): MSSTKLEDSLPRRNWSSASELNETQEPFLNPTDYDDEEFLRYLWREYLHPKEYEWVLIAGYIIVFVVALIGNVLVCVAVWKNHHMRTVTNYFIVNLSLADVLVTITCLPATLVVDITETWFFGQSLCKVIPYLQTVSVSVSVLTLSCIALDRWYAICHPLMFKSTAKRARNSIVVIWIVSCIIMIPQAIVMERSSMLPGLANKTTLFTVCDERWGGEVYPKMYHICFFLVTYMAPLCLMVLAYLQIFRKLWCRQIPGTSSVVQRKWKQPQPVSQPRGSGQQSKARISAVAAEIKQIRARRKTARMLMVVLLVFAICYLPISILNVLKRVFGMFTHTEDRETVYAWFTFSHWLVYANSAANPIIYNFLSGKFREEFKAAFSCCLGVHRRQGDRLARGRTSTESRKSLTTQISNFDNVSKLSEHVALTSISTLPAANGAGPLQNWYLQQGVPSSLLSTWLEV
Description: as §1, §2

human OX2R [2] = target: T3, human OX2R (Homo sapiens, UniProt O43614); test: FLIPR orexin A-stimulated calcium accumulation, human OX2R; assay type: cell-based; conditions: CHO cells
T3 construct: expressed in transfected cells; host or cells: CHO; cells from GNF, San Diego
T3 sequence (O43614 1-444): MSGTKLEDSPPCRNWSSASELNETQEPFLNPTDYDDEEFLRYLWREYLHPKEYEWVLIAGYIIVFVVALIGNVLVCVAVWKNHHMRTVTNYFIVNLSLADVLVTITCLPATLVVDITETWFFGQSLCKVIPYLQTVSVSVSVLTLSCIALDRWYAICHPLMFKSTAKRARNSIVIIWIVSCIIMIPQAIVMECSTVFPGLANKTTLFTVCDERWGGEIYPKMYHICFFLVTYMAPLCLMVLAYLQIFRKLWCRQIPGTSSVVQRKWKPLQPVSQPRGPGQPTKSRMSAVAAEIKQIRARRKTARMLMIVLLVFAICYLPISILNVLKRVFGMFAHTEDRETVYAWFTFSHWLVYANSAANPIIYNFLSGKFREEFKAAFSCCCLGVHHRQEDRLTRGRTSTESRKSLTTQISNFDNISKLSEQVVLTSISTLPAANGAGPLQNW
Description: as §1, §2

human OX2R [3] = target: T3, human OX2R; test: [3H]-BBAC competition binding over time, CHO-hOX2 membranes; conditions: competition for 4.6 nM [3H]-BBAC, 15 min to 4 h, human OX2R
Description: as §1
(§3) Cell membranes were resuspended in binding assay buffer at 4°C (10 mM HEPES, pH 7.5, 0.5% (w/v) bovine serum albumin (BSA), 5 mM MgCl2, 1 mM CaCl2, and 0.05% Tween 20) and homogenized with a Polytron homogenizer at 50 Hz for 20 s. […] Radioactivity was quantified using a TopCount™ microplate counter (Perkin Elmer).
(§4) All data was analyzed using GraphPad Prism 4.0 (GraphPad, San Diego, USA). The saturation data was fit to a non-linear regression model for saturation binding with consideration for one site binding. […] Competition binding data was fit to a non-linear regression model for competition binding with consideration for variable one site binding with a non-fixed Hill slope.

human OX1R [4] = target: T1, human OX1R; test: [3H]-BBAC competition binding over time, CHO-hOX1 membranes
Description: as §1, §3, §4

[5] = antagonist incubation 30 min, read-out: pKi (converted)
[6] = antagonist incubation 1 h, read-out: pKi (converted)
[7] = antagonist incubation 2 h, read-out: pKi (converted)
[8] = antagonist incubation 4 h, read-out: pKi (converted)
[9] = competition for 4.6 nM [3H]-BBAC, 15 min to 4 h, human OX1R

Structure (SMILES) | Ki (human OX1R [1]; antagonist incubation 30 min) | Ki (human OX1R [1]; antagonist incubation 1 h) | Ki (human OX1R [1]; antagonist incubation 2 h) | Ki (human OX1R [1]; antagonist incubation 4 h) | Ki (rat OX2R; [5]) | Ki (rat OX2R; [6]) | Ki (rat OX2R; [7]) | Ki (rat OX2R; [8]) | Ki (human OX2R [2]; antagonist incubation 30 min) | Ki (human OX2R [2]; antagonist incubation 1 h) | Ki (human OX2R [2]; antagonist incubation 2 h) | Ki (human OX2R [2]; antagonist incubation 4 h) | effect of incubation time on competition curves (human OX2R [3]) | effect of incubation time on competition curves (human OX1R [4]; [9]) | effect of incubation time on competition curves (human OX1R [4]) | other results
Cc1ccc(-c2ncccn2)c(C(=O)N2C[C@H](COc3ccc(F)cn3)CC[C@H]2C)c1 [Filorexant] | 2.24 nM | 1.62 nM | 1.66 nM | 2.82 nM | 0.741 nM | 0.417 nM | 0.251 nM | 0.178 nM | 0.355 nM | 0.224 nM | 0.186 nM | 0.17 nM | shifted to the left over time, even up to 4 h | rather insensitive to incubation time |  | 
CNC(=O)[C@@H](c1ccccc1)N1CCc2cc(OC)c(OC)cc2[C@@H]1CCc1ccc(C(F)(F)F)cc1 [Almorexant] |  |  |  |  | 5.62 nM | 2.24 nM | 1.02 nM | 0.661 nM |  | 1.51 nM | 1.58 nM | 0.813 nM | substantially |  | shifted to the left with time moderately | pKi (human OX2R [2]; antagonist incubation 30 min): 8.33 −log M
COc1ccnc(N2CCC3(CCCN(Cc4c[nH]c5ccccc45)C3=O)CC2)n1 [IPSU, 2-((1H-Indol-3-yl)methyl)-9-(4-methoxypyrimidin-2-yl)-2,9-diazaspiro[5.5]undecan-1-one] | 479 nM |  |  | 724 nM | 23.4 nM | 28.2 nM | 24 nM | 28.2 nM | 10 nM | 10.7 nM | 15.1 nM | 20.9 nM | do not show time-dependency | do not show time-dependency |  | pKi (human OX1R [1]; antagonist incubation 1 h): 6.29 −log M; pKi (human OX1R [1]; antagonist incubation 2 h): 6.28 −log M
Cc1ccc(-n2nccn2)c(C(=O)N2CCN(c3nc4cc(Cl)ccc4o3)CC[C@H]2C)c1 [Suvorexant] |  |  |  |  |  |  |  |  |  |  |  |  | shifted to the left over time |  | shifted to the left over time | Ki (rat OX2R; pKi, antagonist incubation 30 min): 1.95 nM; Ki (rat OX2R; pKi, antagonist incubation 1 h): 0.871 nM; Ki (rat OX2R; pKi, antagonist incubation 2 h): 0.603 nM; Ki (rat OX2R; pKi, antagonist incubation 4 h): 0.427 nM
Cc1nc(C(=O)N2CCCC[C@H]2CNC(=O)c2cccc3occc23)c(-c2ccc(F)cc2)s1 [SB-649868] | 0.933 nM | 1.35 nM | 0.513 nM | 0.417 nM | 0.457 nM | 0.316 nM | 0.155 nM | 0.141 nM | 0.302 nM | 0.372 nM | 0.17 nM | 0.151 nM | binding appeared to be rather stable | shifted to the left over time up to 4 h |  | 
